The data set in a line: sorption/desorption (DVS) behaviour: phase transition of the hydrate-forming agent L-arginine. Format: physicochemical. The text has this:
DVS measurement: measurement of the water absorption of a sample as a function of relative humidity and temperature using a highly sensitive sorption scale.
Phase transition in hydrate-forming active substances or adjuvants: the relative humidity at which the hydrate-forming agent water (particularly water of crystallization) is incorporated and changes from an anhydrate or a lower-valency form into a higher valency hydrate form, or vice versa. This relative humidity is characteristic of the respective hydrate-forming agent; if a hydrate-forming agent incorporates water in several steps, there are several phase transitions in this substance. For example: phase transition for pure L-arginine: 38% r.h./25° C. with incorporation of about 1.5 mol of water per 1 mol of L-arginine; in mixtures comprising L-arginine the phase transition is typically between 38 and 40% r.h./25° C., but in the test formulation described herein by way of example it starts, at latest, at 40% r.h./25° C.
(sorption and desorption cycle; change water content vs. rel. humidity). Tablets produced from tabletting material pre-conditioned at 25° C./45% r.h. were subsequently stored in very different humidity ranges (arrows; for discussion of the cases 1-4 see the description herein).

Where only a bound is given, the exact number is not on record here.

As to `N=C(N)NCCC[C@H](N)C(=O)O` [L-arginine], under “25° C.”, the “phase transition (relative humidity at which water of crystallization is incorporated), sorption cycle” value is listed as 38 % r.h and the “phase transition in the desorption cycle (release of water of crystallisation)” value is reported as less than 30 % r.h. For the setting “38% r.h./25° C.”, the “water incorporated at phase transition” value is listed as “about 1.5 mol of water per 1 mol of L-arginine”. In addition, for the setting “at 40° C.”, the “relative humidity to ensure the phase transition, sorption cycle” value is recorded as “about 47 % r.h”.

For the origin of these results see patent US20170095423A1, “Use of selectively moisture-adjusted tabletting material in the production of mechanically stable tablets which contain at least one hydrate-forming active substance and/or adjuvant relevant to the mechanical stability of the tablets, particularly arginine-containing tablets” (Boehringer Ingelheim International GmBH, priority 2012, published 2017).
